Data from ChEMBL document CHEMBL1129142, “Synthesis of azido derivatives of semotiadil, a novel 1,4-benzothiazine calcium antagonist, for photoaffinity probes of calcium channels” (Bioorg Med Chem Lett, 1996).

How the values were obtained:
[1] = [Ca2+] antagonistic activity was measured with isolated depolarized guinea pig taenia cecum.; type: functional, tissue-based, Cavia porcellus, Caecum
[2] = [Ca2+] antagonistic activity was measured with isolated depolarized guinea pig taenia cecum.(test 2); type: functional, tissue-based, Cavia porcellus, Caecum
[3] = Displacement of [3H]semotiadil from L-type calcium channel of rabbit skeletal muscle; type: tissue-based, Oryctolagus cuniculus, Muscle tissue
[4] = [Ca2+] antagonistic activity was measured with isolated depolarized guinea pig taenia cecum.(test 1); type: functional, tissue-based, Cavia porcellus, Caecum

| IC50 [1] [µM] | IC50 [2] [µM] | Ki [3] [µM] | IC50 [4] [µM] | Compound |
| --- | --- | --- | --- | --- |
| 0.275 |  |  |  | COc1ccc(OCCCN(C)CCOc2ccc3c(c2)OCO3)c([C@H]2Sc3ccccc3N(CCN=[N+]=[N-])C2=O)c1 |
|  | 0.0545 | 0.121 | 0.0427 | COc1ccc(OCCCN(C)CCOc2ccc3c(c2)OCO3)c([C@H]2Sc3ccccc3N(C)C2=O)c1 [SEMOTIADIL] |
|  | 1.38 |  | 0.427 | COc1ccc(OCCCN(C)CCOc2cccc(N=[N+]=[N-])c2)c(C2Sc3ccccc3N(C)C2=O)c1 (centres undefined) |
| 0.537 |  |  |  | COc1ccc(OCCCN(C)CCOc2ccc3c(c2)OCO3)c([C@H]2Sc3ccccc3N(CCCCN=[N+]=[N-])C2=O)c1 |
| 0.654 |  | 2.67 |  | COc1ccc(OCCCN(C)CCOc2cccc(N=[N+]=[N-])c2)c([C@H]2Sc3ccccc3N(C)C2=O)c1 |
